The values below come from ChEMBL document CHEMBL1127701, “Antineoplastic agents. 278. Isolation and structure of axinastatins 2 and 3 from a western Caroline Island marine sponge” (1994).

In brackets after ≈: the same amount, converted by molar mass. Where a SMILES comes first, the peptide text is derived from it.

Holding throughout (type): functional
One test relates to SK-MEL-5. The test can be described thus: Tested for cytostatic activity against melanoma SK-MEL-5 cell line. As to conditions: Homo sapiens.
The test system of a further test is KM-20L2. Description: Tested for cytostatic activity against colon KM20L2 cell line. The following applies: Homo sapiens.
In another test the test system is NCI-H460. Description: Tested for cytostatic activity against lung-NSC […] cell line. As to conditions: Homo sapiens.
The test system of a further test is A498. The test can be described thus: Tested for cytostatic activity against renal A498 cell line. The following applies: Homo sapiens.
The next test relates to OVCAR-3. Description: Tested for cytostatic activity against ovarian OVCAR-3 cell line. The following applies: Homo sapiens.
The test system of another test is SF-295. Description: Tested for cytostatic activity against CNS SF-295 cell line. The following applies: Homo sapiens.
In the next test the test system is P388. Description: Tested for in vitro cytotoxicity against the murine leukemia P388 cell line. As to conditions: Mus musculus, read-out: ED50 (the source's name).

As a reminder, the GI50 is the concentration at which growth is held to half of that of the control.

On to `CC[C@H](C)[C@@H]1NC(=O)[C@H](Cc2ccccc2)NC(=O)[C@@H]2CCCN2C(=O)[C@H](CC(N)=O)NC(=O)[C@H](C(C)C)NC(=O)[C@@H]2CCCN2C(=O)[C@H](CC(C)C)NC1=O` (cyclo(FILPVNP)), for which the GI50 in the test on SK-MEL-5 came to 0.012 µg/mL (≈ 0.0154 µM); in the test on KM-20L2, 0.055 µg/mL (≈ 0.0704 µM); with NCI-H460, 0.033 µg/mL (≈ 0.0423 µM); with A498, 0.11 µg/mL (≈ 0.141 µM); with OVCAR-3, 0.0072 µg/mL (≈ 0.00922 µM); in the test with SF-295, 0.18 µg/mL (≈ 0.23 µM).
Consider `CC(C)C[C@@H]1NC(=O)[C@H](C(C)C)NC(=O)[C@H](Cc2ccccc2)NC(=O)[C@@H]2CCCN2C(=O)[C@H](CC(N)=O)NC(=O)[C@H](C(C)C)NC(=O)[C@@H]2CCCN2C1=O` (cyclo(FVLPVNP)), for which the GI50 in the test with SK-MEL-5 came out at 0.068 µg/mL (≈ 0.0887 µM); with KM-20L2, 0.23 µg/mL (≈ 0.3 µM); in the test with NCI-H460, 0.19 µg/mL (≈ 0.248 µM); in the test with A498 it was 0.38 µg/mL (≈ 0.495 µM); in the test on OVCAR-3 it was 0.058 µg/mL (≈ 0.0756 µM); in the test on SF-295, 0.35 µg/mL (≈ 0.456 µM). In addition, the EC50 with P388 was 0.02 µg/mL (≈ 0.0261 µM).
